{
  "source": "patent EP0165775A1",
  "about": "“Antifungal azole compounds” (IMPERIAL CHEMICAL INDUSTRIES PLC, priority 1984, dated 1985)",
  "system": "Candida albicans and Trichophyton mentagrophytes var. quinkeanum",
  "experiment": "animal or person",
  "type": "in vivo",
  "settings": "168 h; female mice, oral dosing twice on day 0 and once daily on days 1-4; skin lesions scored and vaginal samples cultured on day 7; read-out: minimum effective dose (MED)",
  "procedure": "The following Monday (day 0) they are clipped on the back and then dosed orally with test compounds. They are then inoculated with Candida albicans in the vagina and Trichophyton mentagrophytes var. quinkeanum on the back, and then given a second dose of the same compound. Dosing is repeated once daily on days 1-4. On day 7 skin lesions are scored visually and vaginal samples taken for culture on agar. Groups of 5 mice are used and compounds are dosed initially at a level of 250mg./kg. The dose is then reduced sequentially until a minimum effective dose (MED) is found.",
  "data": [
    {"smiles": "OC(Cn1cncn1)(Cn1cnc(Br)n1)c1ccc(F)cc1F", "note": "(stereo not drawn) [Example 1, 1-(3-bromo-1,2,4-triazol-1-yl)-2-(2,4-difluorophenyl)-3-(1,2,4-triazol-l-yl)propan-2-ol]", "values": [
      {"measurement": "minimal effective dose", "result": 2.5, "unit": "mg/kg"}
    ]}
  ]
}
